Measurements published in patent US20070172957A1, “Methods of identifying anti-inflammatory macrolides” (TAISHO PHARMACEUTICAL CO., LTD., priority 2004, published 2007).

Tested on: genes predictive for the anti-inflammatory macrolide effect
Assay: Genes statistically predictive of Clari response: differentially expressed with Clari but not the inactive macrolides MAA or Josa (Appendix E)
Format: cell-based
Description: In the case of the above-mentioned (i) related to arachidonic acid biosynthesis, specifically, methods of the embodiment involve assaying whether a test macrolide alters biosynthesis of arachidonic acid, alters the expression or activities of enzymes involved in the biosynthesis or activation of arachidonic acid (e.g., arachidonic acid CoA synthetase, delta-6 desaturase, fatty acid elongase, and delta-5 desaturase, AA-related genes in Tables 2 and 3), or alters the expression of genes identified as predictive for the anti-inflammatory macrolide effect (Appendix E). Assays in which arachidonic acid or gene expression or enzymatic activity is detected can be carried out after contacting a cell with a test macrolide. Any cell line that secretes prostaglandin or produces arachidonic acid can be used. Epithelial and macrophages lines (e.g., A549 or THP-1) are suitable for this purpose; other cell lines can be identified by carrying out assays such as those described in the specific Examples, below. Alternatively, screening assays can be carried out after adding a test macrolide to an in vitro cell system (e.g., a cellular extract or liver microsome preparation) or an in vitro enzyme assay system.

In the case of `CO[C@@H]1[C@@H](O[C@@H]2O[C@H](C)[C@@H](O[C@H]3C[C@@](C)(O)[C@@H](OC(=O)CC(C)C)[C@H](C)O3)[C@H](N(C)C)[C@H]2O)[C@@H](CC=O)C[C@@H](C)[C@@H](O)/C=C/C=C/C[C@@H](C)OC(=O)C[C@H]1OC(C)=O` [josamycin], the “group mean, gene SERPING1” value (SpotID 46579, MAA and Josa vs. Clari) is reported as 1.03, the “group mean, gene C12orf8” value (SpotID 46586, MAA and Josa vs. Clari) is reported as 0.98 and the “mean group, FLJ20699” value (SpotID 46633, pooled group mean) is reported as 1.00. The “mean group, ARHGAP1” value (SpotID 46648, pooled group mean) was 1.07, the “group mean, gene KIAA1172” value (SpotID 46679, MAA and Josa vs. Clari) was 1.04 and the “mean group, KIAA1172” value (SpotID 46679, pooled group mean) was 1.04. The “group mean, gene MKNK2” value (SpotID 46825, MAA and Josa vs. Clari) was 0.94, the “mean group, MKNK2” value (SpotID 46825, pooled group mean) was 0.94 and the “group mean, gene PRKAR1A” value (SpotID 46838, MAA and Josa vs. Clari) was 1.04. The “group mean, gene ARHGDIA” value (SpotID 46843, MAA and Josa vs. Clari) was 1.08, the “mean group, ARHGDIA” value (SpotID 46843, pooled group mean) was 1.08 and the “group mean, gene HEXA” value (SpotID 46882, MAA and Josa vs. Clari) was 0.97. The “group mean, gene CDIPT” value (SpotID 46896, MAA and Josa vs. Clari) was 0.91, the “mean group, CDIPT” value (SpotID 46896, pooled group mean) was 0.91 and the “mean group, PACE” value (SpotID 46923, pooled group mean) was 1.00. The “group mean, gene METAP2” value (SpotID 46935, MAA and Josa vs. Clari) was 1.05, the “mean group, METAP2” value (SpotID 46935, pooled group mean) was 1.05 and the “group mean, gene HSPBP1” value (SpotID 46979, MAA and Josa vs. Clari) was 1.02. For the same compound, the “mean group, EREG” value (SpotID 46988, pooled group mean) was 1.11, the “group mean, gene TFPI2” value (SpotID 46991, MAA and Josa vs. Clari) was 1.00 and the “group mean, gene C2orf3” value (SpotID 47034, MAA and Josa vs. Clari) was 1.01. The “mean group, C2orf3” value (SpotID 47034, pooled group mean) was 1.01, the “group mean, gene NFRKB” value (SpotID 47056, MAA and Josa vs. Clari) was 0.96 and the “group mean, gene GOLGB1” value (SpotID 47111, MAA and Josa vs. Clari) was 1.01. For the same compound, the “group mean, gene MCM2” value (SpotID 47123, MAA and Josa vs. Clari) was 0.97, the “group mean, gene KIAA0251” value (SpotID 47131, MAA and Josa vs. Clari) was 0.92 and the “group mean, gene ARHGAP1” value (SpotID 47192, MAA and Josa vs. Clari) was 1.10. The “group mean, gene ITGB5” value (SpotID 47212, MAA and Josa vs. Clari) was 0.94, the “mean group, NUBP1” value (SpotID 47241, pooled group mean) was 1.04 and the “group mean, gene AKR1A1” value (SpotID 47249, MAA and Josa vs. Clari) was 0.93. The “group mean, gene HKE4” value (SpotID 47251, MAA and Josa vs. Clari) was 0.94, the “mean group, EPOR” value (SpotID 47314, pooled group mean) was 0.99 and the “group mean, gene ADAM11” value (SpotID 47352, MAA and Josa vs. Clari) was 0.93. For the same compound, the “mean group, ADAM11” value (SpotID 47352, pooled group mean) was 0.93, the “group mean, gene ERF” value (SpotID 47354, MAA and Josa vs. Clari) was 1.15 and the “mean group, P4HB” value (SpotID 47366, pooled group mean) was 1.05. For the same compound, the “group mean, gene MTHFD1” value (SpotID 47406, MAA and Josa vs. Clari) was 1.12, the “mean group, CETN2” value (SpotID 47415, pooled group mean) was 1.06 and the “group mean, gene SNK” value (SpotID 47418, MAA and Josa vs. Clari) was 1.03. The “mean group, SNK” value (SpotID 47418, pooled group mean) was 1.03, the “mean group, GCS1” value (SpotID 47432, pooled group mean) was 0.90 and the “group mean, gene DCTN1” value (SpotID 47439, MAA and Josa vs. Clari) was 1.04. For the same compound, the “mean group, DCTN1” value (SpotID 47439, pooled group mean) was 1.04, the “group mean, gene RANBP1” value (SpotID 47446, MAA and Josa vs. Clari) was 1.04 and the “mean group, RANBP1” value (SpotID 47446, pooled group mean) was 1.04. For the same compound, the “mean group, MSH3” value (SpotID 47504, pooled group mean) was 1.09, the “mean group, SERPINA1” value (SpotID 47522, pooled group mean) was 1.04 and the “group mean, gene PTK2B” value (SpotID 47524, MAA and Josa vs. Clari) was 1.34. For the same compound, the “group mean, gene ARHGDIA” value (SpotID 47535, MAA and Josa vs. Clari) was 1.08, the “group mean, gene TRAP1” value (SpotID 47622, MAA and Josa vs. Clari) was 1.09 and the “mean group, TRAP1” value (SpotID 47622, pooled group mean) was 1.09. The “group mean, gene HSPA9B” value (SpotID 47661, MAA and Josa vs. Clari) was 1.10, the “mean group, NR4A2” value (SpotID 47679, pooled group mean) was 0.95 and the “group mean, gene HSPA9B” value (SpotID 47694, MAA and Josa vs. Clari) was 1.09. The “mean group, HSPA9B” value (SpotID 47694, pooled group mean) was 1.09, the “group mean, gene MAD4” value (SpotID 47705, MAA and Josa vs. Clari) was 0.97 and the “group mean, gene NBS1” value (SpotID 47754, MAA and Josa vs. Clari) was 1.18. For the same compound, the “mean group, NBS1” value (SpotID 47754, pooled group mean) was 1.18, the “group mean, gene KIAA1922” value (SpotID 47755, MAA and Josa vs. Clari) was 1.14 and the “group mean, gene POLA” value (SpotID 47776, MAA and Josa vs. Clari) was 1.02. For the same compound, the “mean group, POLA” value (SpotID 47776, pooled group mean) was 1.02, the “group mean, gene BET3” value (SpotID 47793, MAA and Josa vs. Clari) was 0.95 and the “group mean, gene GOT1” value (SpotID 47802, MAA and Josa vs. Clari) was 1.02. The “mean group, GOT1” value (SpotID 47802, pooled group mean) was 1.02, the “group mean, gene ENTPD6” value (SpotID 47811, MAA and Josa vs. Clari) was 0.93 and the “mean group, ENTPD6” value (SpotID 47811, pooled group mean) was 0.93. For the same compound, the “mean group, SSI-1” value (SpotID 47846, pooled group mean) was 1.03, the “group mean, gene PRLR” value (SpotID 47850, MAA and Josa vs. Clari) was 1.09 and the “mean group, PRLR” value (SpotID 47850, pooled group mean) was 1.09. The “group mean, gene ERF” value (SpotID 47898, MAA and Josa vs. Clari) was 1.14, the “group mean, gene YWHAE” value (SpotID 47911, MAA and Josa vs. Clari) was 1.04 and the “group mean, gene CCNE2” value (SpotID 47926, MAA and Josa vs. Clari) was 0.98. The “group mean, gene P4HA1” value (SpotID 47935, MAA and Josa vs. Clari) was 0.95, the “mean group, P4HA1” value (SpotID 47935, pooled group mean) was 0.95 and the “group mean, gene CTSB” value (SpotID 47937, MAA and Josa vs. Clari) was 0.98. The “group mean, gene INPP5E” value (SpotID 47939, MAA and Josa vs. Clari) was 0.99 and the “group mean, gene SF3B3” value (SpotID 47947, MAA and Josa vs. Clari) was 1.10.
